Source: patent EP2127664A1, “Change of the load state of MHC molecules by dipeptides” (priority 2008, dated 2009)
Entries after “also recorded” stand apart in the source; their conditions may differ. Peptide text beside a SMILES is read from it.

Columns and labels:
[1] = biological target: T1, soluble HLA-DR1 (DRA*0101, DRB1*0101) (Homo sapiens, UniProt P01903+P01911, A100R/D57E/F55L/F60I/F76Y/I96L/L162R/M171V/P40L/Q125E/R42F/V115G/Y59C); assay: Peptide loading of soluble HLA-DR1 with HA306-318 (ELISA); type: biochemical; conditions: for complex formation between HA306-318 and soluble HLA-DR1 (catalytic activity): titrated amounts of dipeptide, 100nM HLA-DR1, phosphate-buffered saline pH 7.4, 37 °C, 1 h; for catalytic rate enhancement: mean activity, soluble HLA-DR1 (DRB1*0101)
T1 construct: Recombinant soluble HLA-DR1 (DRA*0101, DRB1*0101) (Sloan, V. S (1995) Nature 375, 802-806) was produced in S2 insect cells; made in house; host or cells: S2 insect cells
Source text: Antibodies and soluble HLA-DR1. The HLA-DR-specific antibody L243 (ATCC) was purified.

human T cell line PD2 = assay: In vitro T cell assay with HA306-318 and peptide-MLE; type: cell-based
Source text: (§1) Cells. Stable transfection of L929 fibroblasts (ATCC) were done to generate L101 (DRB1*0101 b86 G) or L101 (β86V) respectively (Höpner et al., (2006), supra). Epstein-Barr virus-transformed B cell 721.221(DRB1*0101) was obtained from ATCC. EvHA/X5 (DRB1*0101-restricted, HA306-318-specific) were derived from HLA-DR1tg mice (Rosloniec, E. F. (1997) J. Exp. Med. 185, 1113-1122) and were generated after fusion of the CD4+ EvHA T cell line with the BW cell (Höpner et al., (2006), supra). CD4+ T cell line PD2 , HLA-DR1 restricted and HA 306-318 specific (Falk K, et al., (2000) Eur. J. Immunol. 30, 3012-3020), ABL 908-922-specific T cell hybridoma SaABL/G2 was generated after fusing a CD4+ T cell line generated in HLA-DR1 […] mice with the BW cell.
(§2) T cell Assays. For pulse wash experiments 5x 10^4 HLA-DR-expressing cells/well were loaded for 4 h with antigenic peptides in the presence and absence of dipeptides as described above. Cells were then washed, and 5x10^4 T cells were added to the culture, which was then incubated for 24 h in Dulbecco's modified Eagle's medium, 5% fetal calf serum in 96-well U-bottom plates. However for permanent assay, HLA-DR expressing cells, T cells and dipeptide stayed together in the reaction for 48 hrs. T cell response was determined in a secondary assay with CTL-L cells (ATCC) as described previously (Falk, K., (2002) J. Biol. Chem. 277, 2709-2715). In experiments with PD-2 cell line, HTR's (as APCs) were pre-irradiated for 520 sec and then used for experiments.

[2] = system: HLA-DR1 restricted mouse T cell hybridoma EvHA/X5; assay: as above; type: cell-based
Source text: as §1, §2

CLIP/HLA-DR1 complex = biological target: T2, CLIP/HLA-DR1 complex (Homo sapiens, UniProt P01903+P01911, A100R/D57E/F55L/F60I/F76Y/I96L/L162R/M171V/P40L/Q125E/R42F/V115G/Y59C); assay: Ligand exchange / complex dissociation of CLIP/HLA-DR1 (ELISA); type: biochemical; conditions: 10 mM dipeptide; in the presence of free HA306-318
T2 construct: soluble class II MHC molecules were preloaded with the CLIP peptide; made in house; host or cells: S2 insect cells
Procedure: Ligand-exchange of soluble HLA-DR molecules- In vitro ligand exchange experiments were carried out by loading 1,5 µM of HLA-DR1 with biotinylated IC106-120, for 20 hrs (Höpner et al., (2006), supra) in presence of 5% ethanol. HLA-DR1:IC complex was diluted to 1:15 and incubated with 200µg/ml HA peptide in presence and absence of 10mM dipeptide.

[3] = biological target: T3, fibroblast cells transfected with mutated HLA-DR1 (β86G→V) (Homo sapiens, UniProt P01903+P01911, A100R/D57E/F55L/F60I/F76Y/I96L/L162R/M171V/P40L/Q125E/R42F/Y59C); assay: Peptide loading of cell surface MHC molecules with ABL908-922 (FACS); type: cell-based; conditions: fibroblasts expressing HLA-DR1 (β86G→V)
T3 construct: transfected with full length versions of wt HLA-DR1 (β86G) and mutated HLA-DR1 (β86G→V); expressed in transfected cells
Source text: as §1
Peptide Loading of Cell Surface MHC Molecules. For loading experiments biotinylated antigenic peptides were incubated with 10 x 10^4 HLA-DR expressing cells/well in presence and absence of dipeptides at 37 °C in Dulbecco's modified Eagle's medium, 5% fetal calf serum in a 96 well V bottom plate for 4 hrs. FACS analysis was done as described previously (Höpner et al., (2006), supra).

[4] = system: CD4+ T cell hybridoma specific for the ABL epitope (SaABL/G5); assay: T cell assay, ABL908-922-loaded fibroblasts expressing HLA-DR1 (β86G→V); type: cell-based, mice; conditions: fibroblasts with mutated HLA-DR1 (β86G→V) loaded in the presence of dipeptides
Source text: as §1
as §2, with “In experiments with PD-2 cell line, HTR's (as APCs) were pre-irradiated for 520 sec and then used for experiments.” left out

HLA-DR1 (β86G→V) = biological target: T4, HLA-DR1 (β86G→V) (Homo sapiens, UniProt P01903+P01911, A100R/D57E/F55L/F60I/F76Y/I96L/L162R/M171V/P40L/Q125E/R42F/Y59C); assay: Loading of soluble mutated HLA-DR1 with ABL908-922 (ELISA); type: biochemical; conditions: titrated amounts of dipeptide
T4 construct: Recombinant soluble HLA-DR1 molecules were mutated at position 86; made in house; host or cells: S2 insect cells (printed for the recombinant soluble HLA-DR1; not repeated for the mutants)
Procedure: Peptide loading/ of Soluble HLA-DR Molecules- For in vitro loading experiments 100nM HLA-DR1 was incubated with 40 µg/ml (phosphate-buffered saline, pH 7.4, 37 °C, 1 h).

[5] = in the presence of Ac-FR-NH2 (5 mM per Fig. 5 legend)
[6] = in the absence of the dipeptide catalyst

## CC(=O)N[C@@H](C)C(=O)N[C@@H](CCCNC(=N)N)C(N)=O [Ac-AR-NH2] (Ac-Ala-Arg-NH2)
[1]
  complex formation between HA306-318 and soluble HLA-DR1 (catalytic activity): completely inactive; also recorded: abrogated the effect

## C[C@H](N)C(=O)N[C@@H](CCCNC(=N)N)C(=O)O [AR] (H-Ala-Arg-OH)
[1]
  complex formation between HA306-318 and soluble HLA-DR1 (catalytic activity): No effect

## CC(=O)N[C@@H](Cc1ccccc1)C(=O)N[C@@H](CCCNC(=N)N)C(N)=O [Ac-FR-NH2] (Ac-Phe-Arg-NH2)
[1]; in the presence of 1 mM
  on-rate is amplified by a factor of: 7.08
[1]
  catalytic rate enhancement: 6.08 mM⁻¹
Human T cell line PD2; [5]
  half-maximal response (concentration of HA306-318): 0.23 ng/mL
[2]; [5]
  half-maximal response (concentration of HA306-318): 0.65 ng/mL

## CC(=O)N[C@@H](Cc1ccc(O)cc1)C(=O)N[C@@H](CCCNC(=N)N)C(N)=O [Ac-YR-NH2]
CLIP/HLA-DR1 complex
  complex dissociation of CLIP/HLA-DR1: weaker dissociation
[1]; complex formation between HA306-318 and HLA-DR1
  increase in the catalytic activity compared to the unmodified YR peptide: more than 10 fold
[1]
  catalytic rate enhancement: 3.39 mM⁻¹

## CC(=O)N[C@@H](Cc1c[nH]c2ccccc12)C(=O)N[C@@H](CCCNC(=N)N)C(N)=O [Ac-WR-NH2] (Ac-Trp-Arg-NH2)
[1]
  catalytic rate enhancement: 3.54 mM⁻¹

## N=C(N)NCCC[C@H](NC(=O)[C@@H](N)Cc1ccc(O)cc1)C(=O)O [YR]
[1]
  complex formation between HA306-318 and soluble HLA-DR1 (catalytic activity): accelerated the MHC-loading with the HA306-318 peptide in a dose-dependent way

## CC(=O)N[C@@H](Cc1ccc(O)cc1)C(=O)N[C@@H](CCCNC(=N)N)C(=O)O [Ac-YR]
[1]
  complex formation between HA306-318 and soluble HLA-DR1 (catalytic activity): partial effect

## N=C(N)NCCC[C@H](NC(=O)[C@@H](N)Cc1ccc(O)cc1)C(N)=O [YR-NH2]
[1]
  complex formation between HA306-318 and soluble HLA-DR1 (catalytic activity): partial effect

## CC(=O)N[C@@H](CC(C)C)C(=O)N[C@@H](CCCNC(=N)N)C(N)=O [Ac-LR-NH2]
CLIP/HLA-DR1 complex
  complex dissociation of CLIP/HLA-DR1: weaker dissociation
[3]
  loading of cells with ABL908-922 determined by FACS: most effective
Human T cell line PD2; compared with Ac-FR-NH2
  effect on the HA306-318-specific T cell response: weaker effects
[2]; compared with Ac-FR-NH2
  effect on the HA306-318-specific T cell response: weaker effects
[4]
  ABL908-922-specific T cell stimulation: most efficient ABL908-922-specific stimulation
HLA-DR1 (β86G→V)
  enhancement of ABL908-922 loading: best enhancement

## CC(=O)N[C@@H](CCC(=O)O)C(=O)N[C@@H](CCCNC(=N)N)C(N)=O [Ac-ER-NH2] (Ac-Glu-Arg-NH2)
[1]
  complex formation between HA306-318 and soluble HLA-DR1 (catalytic activity): No enhancement; also recorded: abrogated the effect

## HA306-318: high-affinity peptide ligand / antigen HA306-318 (PKYVKQNTLKLAT) [reference compound]
Human T cell line PD2; [6]
  half-maximal response (concentration of HA306-318): 14 ng/mL
[2]; [6]
  half-maximal response (concentration of HA306-318): 31 ng/mL
